From ChEMBL document CHEMBL4190348, “Synthesis of cytotoxically active derivatives based on alkylated 2,3-seco-triterpenoids” (Eur J Med Chem, 2017)
Values after ≈ are worked out from the molar mass of the structure shown. Active and inactive are the calls of the source. The calls are words filed in the database; no cut-off is given here.

Key:
HEp-2 = test: Cytotoxicity against human Hep2 cells assessed as reduction in cell viability incubated for 72 hrs by MTT assay; assay type: functional, cell-based; conditions: HEp-2, 72 h
HCT-116 [1] = test: Cytotoxicity against human HCT116 cells assessed as reduction in cell viability incubated for 72 hrs by MTT assay; assay type: functional, cell-based; conditions: HCT-116, 72 h
[2] = Cytotoxicity against human MS cells assessed as reduction in cell viability incubated for 72 hrs by MTT assay; assay type: functional, cell-based
RD = test: Cytotoxicity against human TE32 cells assessed as reduction in cell viability incubated for 72 hrs by MTT assay; assay type: functional, cell-based
A549 = test: Cytotoxicity against human A549 cells assessed as reduction in cell viability incubated for 72 hrs by MTT assay; assay type: functional, cell-based; conditions: A549, 72 h
[3] = system: Human immunodeficiency virus 1; test: Antiviral activity against HIV1; assay type: functional, organism-based
Human alphaherpesvirus 1 = test: Antiviral activity against HSV1; assay type: functional, organism-based
HEK293 = test: Cytotoxicity against HEK293 cells assessed as reduction in cell viability incubated for 72 hrs by MTT assay; assay type: cell-based; conditions: Homo sapiens, HEK293, 72 h
HCT-116 [4] = test: Induction of apoptosis in human HCT116 cells assessed as viable cells level at 2 uM incubated for 16 hrs by Annexin V-FICT/PI staining based flow cytometry (reference value: 91.36%); assay type: functional
HCT-116 [5] = test: Induction of apoptosis in human HCT116 cells assessed as early apoptotic cells level at 2 uM incubated for 16 hrs by Annexin V-FICT/PI staining based flow cytometry (reference value: 4.47%); assay type: functional
HCT-116 [6] = test: Induction of apoptosis in human HCT116 cells assessed as late apoptotic cells level at 2 uM incubated for 16 hrs by Annexin V-FICT/PI staining based flow cytometry (reference value: 2.51%); assay type: functional
HCT-116 [7] = test: Induction of apoptosis in human HCT116 cells assessed as necrotic cells level at 2 uM incubated for 16 hrs by Annexin V-FICT/PI staining based flow cytometry (reference value: 1.67%); assay type: functional
HCT-116 [8] = test: Induction of apoptosis in human HCT116 cells assessed as increase in mitochondrial membrane depolarization at 2 uM incubated for 18 hrs by rhodamine 123 staining based fluorescent inverted microscopy (reference value: 8%); assay type: functional
HCT-116 [9] = test: Induction of apoptosis in human HCT116 cells assessed as increase in mitochondrial membrane depolarization at 10 uM incubated for 18 hrs by rhodamine 123 staining based fluorescent inverted microscopy (reference value: 8%); assay type: functional
[10] = Selectivity index, ratio of IC50 for HEK293 cells to IC50 for human HCT116 cells; assay type: toxicity; conditions: HEK293 cells versus HCT116 cells, read-out: Ratio IC50
[11] = Selectivity index, ratio of IC50 for HEK293 cells to IC50 for human Hep2 cells; assay type: toxicity; conditions: HEK293 cells versus Hep2 cells, read-out: Ratio IC50
[12] = Selectivity index, ratio of IC50 for HEK293 cells to IC50 for human TE32 cells; assay type: toxicity; conditions: HEK293 cells versus TE32 cells, read-out: Ratio IC50
[13] = Selectivity index, ratio of IC50 for HEK293 cells to IC50 for human MS cells; assay type: toxicity; conditions: HEK293 cells versus MS cells, read-out: Ratio IC50
HCT-116 [14] = test: Induction of apoptosis in human HCT116 cells assessed as viable cells level at 10 uM incubated for 16 hrs by Annexin V-FICT/PI staining based flow cytometry (reference value: 91.36%); assay type: functional
HCT-116 [15] = test: Induction of apoptosis in human HCT116 cells assessed as early apoptotic cells level at 10 uM incubated for 16 hrs by Annexin V-FICT/PI staining based flow cytometry (reference value: 4.47%); assay type: functional
HCT-116 [16] = test: Induction of apoptosis in human HCT116 cells assessed as late apoptotic cells level at 10 uM incubated for 16 hrs by Annexin V-FICT/PI staining based flow cytometry (reference value: 2.51%); assay type: functional
HCT-116 [17] = test: Induction of apoptosis in human HCT116 cells assessed as necrotic cells level at 10 uM incubated for 16 hrs by Annexin V-FICT/PI staining based flow cytometry (reference value: 1.67%); assay type: functional
HCT-116 [18] = test: Induction of apoptosis in human HCT116 cells assessed as increase in chromatin condensation at 10 uM incubated for 18 hrs by Hoechst 33258 staining based fluorescent inverted microscopy; assay type: functional
HCT-116 [19] = test: Induction of apoptosis in human HCT116 cells assessed as increase in caspase-8 activity at 10 uM after 12 hrs by fluorimetric assay; assay type: functional, cell-based
HCT-116 [20] = test: Induction of apoptosis in human HCT116 cells assessed as increase in caspase-3/7 activity at 10 uM after 18 hrs by fluorimetric assay; assay type: functional, cell-based
HCT-116 [21] = test: Induction of apoptosis in human HCT116 cells assessed as increase in caspase-3/7 activity at 10 uM after 24 hrs by fluorimetric assay; assay type: functional, cell-based
HCT-116 [22] = test: Induction of apoptosis in human HCT116 cells assessed as increase in cck18 level at 10 uM after 18 hrs by fluorimetric assay; assay type: functional, cell-based
HCT-116 [23] = test: Cytotoxicity against human HCT116 cells assessed as reduction in cell viability at 10 uM incubated for 12 to 72 hrs by MTT assay; assay type: functional, cell-based; conditions: TDE = time-dependent effect
HL-60 = test: Growth inhibition of human HL60 cells; assay type: functional

| SMILES | IC50 (HEp-2) [µM] | IC50 (HCT-116 [1]) [µM] | IC50 [2] [µM] | IC50 (RD) [µM] | IC50 (A549) [µM] | also measured |
| --- | --- | --- | --- | --- | --- | --- |
| C=C(C)[C@@H]1CC[C@]2(C(=O)OC)CC[C@]3(C)[C@H](CC[C@@H]4[C@@](C)(CC#N)[C@H](C(C)(C)[C@@H](C)O)CC[C@]43C)[C@@H]12 | 43.8 | 31.7 | 15.1 | 20.2 | 19.1 | – |
| CC(=O)C(C)(C)[C@@H]1CC[C@]2(C)[C@H](CC[C@@H]3[C@H]4[C@H]5OC[C@@]4(CCC5(C)C)CC[C@]32C)[C@@]1(C)CC#N | > 100 | > 100 | > 100 | > 100 | > 100 | EC50 [3]: 7.2 µg/mL (≈ 15.4 µM); EC50 (Human alphaherpesvirus 1): 21.1 µg/mL (≈ 45.1 µM) |
| C=C(C)[C@@H]1CC[C@]2(C(=O)OC)CC[C@]3(C)[C@H](CC[C@@H]4[C@@]5(C)C/C(=N\O)[C@](C)(O)C(C)(C)[C@@H]5CC[C@]43C)[C@@H]12 | 71 | > 100 | 23.5 | 29 | 55.4 | – |
| C=C(C=O)[C@@H]1CC[C@]2(C(=O)OC)CC[C@]3(C)[C@H](CC[C@@H]4[C@@](C)(CC#N)[C@H](C(C)(C)C(C)=O)CC[C@]43C)[C@@H]12 | 52.1 | 7.3 | 5.48 | 5.04 | 15.4 | IC50 (HEK293): 6 µM |
| C=C(C=O)[C@@H]1CC[C@]2(C(=O)OC)CC[C@]3(C)[C@H](CC[C@@H]4[C@@]5(C)C(C#N)=C(C)C(C)(C)[C@@H]5CC[C@]43C)[C@@H]12 | 17.4 | 7.09 | 8.59 | 21.8 | 36 | – |
| CC[C@@]1(O)C(=O)OCc2c1cc1n(c2=O)Cc2cc3ccccc3nc2-1 [CAMPTOTHECIN] | 3.04 | 1.88 | 1.84 | – | – | Activity (HCT-116 [4]): 80.88%; Activity (HCT-116 [5]): 12.44%; Activity (HCT-116 [6]): 5.07%; Activity (HCT-116 [7]): 1.6%; Activity (HCT-116 [8]): -30% |
| CC1(C)CC[C@]23CC[C@]4(C)[C@H](CC[C@@H]5[C@@]6(C)C(C#N)=C(CO)C(C)(C)[C@@H]6CC[C@]54C)[C@H]2[C@H]1OC3 | > 100 | > 100 | > 100 | > 100 | 57.8 | – |
| CC(=O)O[C@H](C)C(C)(C)[C@@H]1CC[C@]2(C)[C@H](CC[C@@H]3[C@H]4[C@H]5OC[C@@]4(CCC5(C)C)CC[C@]32C)[C@@]1(C)CC#N | > 100 | 65.3 | 21.3 | 31.9 | 45.7 | – |
| CC1(C)CC[C@]23CC[C@]4(C)[C@H](CC[C@@H]5[C@@]6(C)C/C(=N\O)[C@](C)(O)C(C)(C)[C@@H]6CC[C@]54C)[C@H]2[C@H]1OC3 | 85.4 | > 100 | 87.3 | 33.7 | > 100 | – |
| COC(=O)[C@]12CC[C@@H](C(C)=O)[C@@H]1[C@H]1CC[C@@H]3[C@@](C)(CC#N)[C@H](C(C)(C)C(C)=O)CC[C@@]3(C)[C@]1(C)CC2 | > 100 | > 100 | > 100 | > 100 | > 100 | – |
| C=C(C=O)[C@@H]1CC[C@]2(C(=O)OC)CC[C@]3(C)[C@H](CC[C@@H]4[C@@](C)(CC#N)[C@H](C(C)(C)C(=O)C(Br)Br)CC[C@]43C)[C@@H]12 | > 100 | 26.3 | 6.27 | 6.96 | > 100 | – |
| CC1(C)CC[C@]23CC[C@]4(C)[C@H](CC[C@@H]5[C@@](C)(CC#N)[C@H](C(C)(C)C(=O)CBr)CC[C@]54C)[C@H]2[C@H]1OC3 | > 100 | > 100 | > 100 | 52.9 | > 100 | – |
| CC1(C)CC[C@]23CC[C@]4(C)[C@H](CC[C@@H]5[C@@](C)(CC#N)[C@H](C(C)(C)C(=O)C(Br)Br)CC[C@]54C)[C@H]2[C@H]1OC3 | > 100 | > 100 | > 100 | > 100 | > 100 | – |
| C=C(C)[C@@H]1CC[C@]2(C(=O)O)CC[C@]3(C)[C@H](CC[C@@H]4[C@@]5(C)[C@H](C(=O)O)[C@H](O)C(C)(C)[C@@H]5CC[C@]43C)[C@@H]12 [EPICEANOTHIC ACID] | – | – | – | – | – | EC50 [3]: < 0.064 µg/mL |
| C=C(C)[C@@H]1CC[C@]2(C(=O)OC)CC[C@]3(C)[C@H](CC[C@@H]4[C@@](C)(CC#N)[C@H](C(C)(C)[C@@H](C)OC(C)=O)CC[C@]43C)[C@@H]12 | > 100 | > 100 | 96.9 | 42.5 | 92.7 | – |
| C[C@@H](O)C(C)(C)[C@@H]1CC[C@]2(C)[C@H](CC[C@@H]3[C@H]4[C@H]5OC[C@@]4(CCC5(C)C)CC[C@]32C)[C@@]1(C)CC#N | > 100 | > 100 | 83.3 | 96.5 | > 200 | – |
| C=C(C=O)[C@@H]1CC[C@]2(C(=O)OC)CC[C@]3(C)[C@H](CC[C@@H]4[C@@](C)(CC#N)[C@H](C(C)(C)C(=O)CBr)CC[C@]43C)[C@@H]12 | 5.28 | 10.3 | 3.41 | 3.84 | 25.4 | Activity (HCT-116 [9]): 11.6%; IC50 (HEK293): 92.3 µM; selectivity ratio [10]: 8.9; selectivity ratio [11]: 17.4; selectivity ratio [12]: 24.3; selectivity ratio [13]: 27.2; Activity (HCT-116 [14]): 59.86%; Activity (HCT-116 [15]): 25.61%; Activity (HCT-116 [16]): 10.07%; Activity (HCT-116 [17]): 4.46%; Activity (HCT-116 [18]): 28.3%; Activity (HCT-116 [19]): Active; Activity (HCT-116 [20]): Active; Activity (HCT-116 [21]): Active; Activity (HCT-116 [22]): Active; Activity (HCT-116 [23]): Tde |
| C=C(C)[C@@H]1CC[C@]2(C(=O)OC)CC[C@]3(C)[C@H](CC[C@@H]4[C@@](C)(CC#N)[C@H](C(C)(C)C(C)=O)CC[C@]43C)[C@@H]12 | > 100 | > 100 | > 100 | > 100 | > 100 | EC50 [3]: 39.9 µg/mL (≈ 80.5 µM) |
| COC(=O)[C@]12CC[C@@H](C(C)=O)[C@@H]1[C@H]1CC[C@@H]3[C@@]4(C)C(C#N)=C(C)C(C)(C)[C@@H]4CC[C@@]3(C)[C@]1(C)CC2 | > 100 | > 100 | > 100 | > 100 | > 100 | – |
| C=C(C)[C@@H]1CC=C2[C@@H](CC[C@]3(C)[C@@H]([C@H](C)CC(=O)CC(C)C)CC[C@@]23C)[C@@]1(C)CCC(=O)O | – | – | – | – | – | GI50 (HL-60): 6.8 µM |
